In PubChem BioAssay (NCI):
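Cells were grown in 96-well plates and exposed to each compound for 48 hours at five concentrations; endpoints were interpolated linearly between bracketing concentrations, or set to the highest concentration if not reached. GI50 marks 50% less growth. TGI denotes the concentration required for complete inhibition of growth.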

Columns and labels:
Experiment in all cases: NCI anticancer screen, dose series, 48 h
HOP-62 NSCLC = tested on: HOP-62 NSCLC
MDA-MB-435 = tested on: MDA-MB-435
RXF 393 renal = tested on: RXF 393 renal
TK-10 renal = tested on: TK-10 renal
BT-549 breast = tested on: BT-549 breast
MOLT-4 leukemia = tested on: MOLT-4 leukemia
DU-145 prostate = tested on: DU-145 prostate
786-0 renal = tested on: 786-0 renal
PC-3 prostate = tested on: PC-3 prostate
SNB-75 CNS = tested on: SNB-75 CNS
SK-MEL-5 melanoma = tested on: SK-MEL-5 melanoma
CAKI-1 renal = tested on: CAKI-1 renal
KM12 colon = tested on: KM12 colon
HL-60(TB) leukemia = tested on: HL-60(TB) leukemia
K-562 leukemia = tested on: K-562 leukemia
SK-OV-3 ovarian = tested on: SK-OV-3 ovarian
MALME-3M melanoma = tested on: MALME-3M melanoma
HCC-2998 colon = tested on: HCC-2998 colon
SF-539 CNS = tested on: SF-539 CNS
NCI-H460 lung = tested on: NCI-H460 lung
MCF7 breast = tested on: MCF7 breast
HS 578T breast = tested on: HS 578T breast
UACC-62 melanoma = tested on: UACC-62 melanoma
A498 renal = tested on: A498 renal
NCI-H226 lung = tested on: NCI-H226 lung
NCI-H23 lung = tested on: NCI-H23 lung
RPMI-8226 leukemia = tested on: RPMI-8226 leukemia
SW-620 colon = tested on: SW-620 colon
IGROV1 ovarian = tested on: IGROV1 ovarian
HOP-92 NSCLC = tested on: HOP-92 NSCLC
SK-MEL-28 melanoma = tested on: SK-MEL-28 melanoma
OVCAR-3 ovarian = tested on: OVCAR-3 ovarian
EKVX NSCLC = tested on: EKVX NSCLC
MDA-MB-468 breast = tested on: MDA-MB-468 breast
UO-31 renal = tested on: UO-31 renal
A549 NSCLC = tested on: A549 NSCLC
SN12C renal = tested on: SN12C renal
CCRF-CEM leukemia = tested on: CCRF-CEM leukemia
HCT-15 colon = tested on: HCT-15 colon
COLO 205 colon = tested on: COLO 205 colon
SK-MEL-2 melanoma = tested on: SK-MEL-2 melanoma
M14 melanoma = tested on: M14 melanoma
HCT-116 colon = tested on: HCT-116 colon
LOX IMVI melanoma = tested on: LOX IMVI melanoma
OVCAR-8 ovarian = tested on: OVCAR-8 ovarian
MDA-MB-231 breast = tested on: MDA-MB-231 breast
U251 CNS = tested on: U251 CNS
SNB-19 CNS = tested on: SNB-19 CNS
UACC-257 melanoma = tested on: UACC-257 melanoma
T-47D breast = tested on: T-47D breast
SF-268 CNS = tested on: SF-268 CNS
NCI-H522 lung = tested on: NCI-H522 lung
SR leukemia = tested on: SR leukemia
SF-295 CNS = tested on: SF-295 CNS
OVCAR-4 ovarian = tested on: OVCAR-4 ovarian
OVCAR-5 ovarian = tested on: OVCAR-5 ovarian
ACHN renal = tested on: ACHN renal
HT29 colon = tested on: HT29 colon

For `Cc1cc(C2(c3cc(C)c(OCC(O)CNc4c(C)n(C)n(-c5ccccc5)c4=O)cc3C(C)C)OC(=O)c3ccccc32)c(C(C)C)cc1OCC(O)CNc1c(C)n(C)n(-c2ccccc2)c1=O` (stereo unspecified), the GI50 (HOP-62 NSCLC) was 36.5 µM, the TGI (HOP-62 NSCLC) was > 100 µM and the GI50 (MDA-MB-435) was 14.7 µM. The TGI (MDA-MB-435) was 38.3 µM, the GI50 (RXF 393 renal) was 5.2 µM and the TGI (RXF 393 renal) was 38 µM. The GI50 (TK-10 renal) was 49.3 µM, the TGI (TK-10 renal) was > 100 µM and the GI50 (BT-549 breast) was 23.3 µM. For the same molecule, the TGI (BT-549 breast) was > 100 µM, the GI50 (MOLT-4 leukemia) was 6.78 µM and the TGI (MOLT-4 leukemia) was > 100 µM. For the same molecule, the GI50 (DU-145 prostate) was 34 µM, the TGI (DU-145 prostate) was > 100 µM and the GI50 (786-0 renal) was 19.2 µM. For the same molecule, the TGI (786-0 renal) was 76.5 µM, the GI50 (PC-3 prostate) was 5.72 µM and the TGI (PC-3 prostate) was > 100 µM. The GI50 (SNB-75 CNS) was 20.3 µM, the TGI (SNB-75 CNS) was > 100 µM and the GI50 (SK-MEL-5 melanoma) was 13.2 µM. For the same molecule, the TGI (SK-MEL-5 melanoma) was 26.7 µM, the GI50 (CAKI-1 renal) was 4.11 µM and the TGI (CAKI-1 renal) was > 100 µM. The GI50 (KM12 colon) was 25.8 µM, the TGI (KM12 colon) was > 100 µM and the GI50 (HL-60(TB) leukemia) was 14.2 µM. The TGI (HL-60(TB) leukemia) was 79.7 µM, the GI50 (K-562 leukemia) was 14.4 µM and the TGI (K-562 leukemia) was > 100 µM. For the same molecule, the GI50 (SK-OV-3 ovarian) was 49.2 µM, the TGI (SK-OV-3 ovarian) was > 100 µM and the GI50 (MALME-3M melanoma) was 20 µM. The TGI (MALME-3M melanoma) was 52.9 µM, the GI50 (HCC-2998 colon) was 17.1 µM and the TGI (HCC-2998 colon) was 49.6 µM. For the same molecule, the GI50 (SF-539 CNS) was 18.6 µM, the TGI (SF-539 CNS) was 52.9 µM and the GI50 (NCI-H460 lung) was 15.6 µM. For the same molecule, the TGI (NCI-H460 lung) was 43.4 µM, the GI50 (MCF7 breast) was 14 µM and the TGI (MCF7 breast) was 39.6 µM. The GI50 (HS 578T breast) was 14.2 µM, the TGI (HS 578T breast) was > 100 µM and the GI50 (UACC-62 melanoma) was 9.74 µM. The TGI (UACC-62 melanoma) was 24.4 µM, the GI50 (A498 renal) was 29.1 µM and the TGI (A498 renal) was > 100 µM. For the same molecule, the GI50 (NCI-H226 lung) was 15.7 µM, the TGI (NCI-H226 lung) was > 100 µM and the GI50 (NCI-H23 lung) was 23.5 µM. For the same molecule, the TGI (NCI-H23 lung) was > 100 µM, the GI50 (RPMI-8226 leukemia) was 13.9 µM and the TGI (RPMI-8226 leukemia) was 84.6 µM. For the same molecule, the GI50 (SW-620 colon) was 28.2 µM, the TGI (SW-620 colon) was > 100 µM and the GI50 (IGROV1 ovarian) was 29 µM. The TGI (IGROV1 ovarian) was > 100 µM, the GI50 (HOP-92 NSCLC) was 4.49 µM and the TGI (HOP-92 NSCLC) was 49.8 µM. The GI50 (SK-MEL-28 melanoma) was 23.2 µM, the TGI (SK-MEL-28 melanoma) was 92.9 µM and the GI50 (OVCAR-3 ovarian) was 19 µM. The TGI (OVCAR-3 ovarian) was 92.6 µM, the GI50 (EKVX NSCLC) was 14.7 µM and the TGI (EKVX NSCLC) was > 100 µM. It also gave a GI50 (MDA-MB-468 breast) of 12.1 µM, a TGI (MDA-MB-468 breast) of 44.5 µM and a GI50 (UO-31 renal) of 19.9 µM. The TGI (UO-31 renal) was > 100 µM, the GI50 (A549 NSCLC) was 23.1 µM and the TGI (A549 NSCLC) was > 100 µM. The GI50 (SN12C renal) was 26.1 µM, the TGI (SN12C renal) was > 100 µM and the GI50 (CCRF-CEM leukemia) was 15.5 µM. For the same molecule, the TGI (CCRF-CEM leukemia) was > 100 µM, the GI50 (HCT-15 colon) was 17.1 µM and the TGI (HCT-15 colon) was 67.9 µM. It also gave a GI50 (COLO 205 colon) of 17.9 µM, a TGI (COLO 205 colon) of 41.8 µM and a GI50 (SK-MEL-2 melanoma) of 17.5 µM. The TGI (SK-MEL-2 melanoma) was 40.8 µM, the GI50 (M14 melanoma) was 17.8 µM and the TGI (M14 melanoma) was 44.7 µM. It also gave a GI50 (HCT-116 colon) of 16.9 µM, a TGI (HCT-116 colon) of 46.8 µM and a GI50 (LOX IMVI melanoma) of 14.4 µM. The TGI (LOX IMVI melanoma) was 30.3 µM, the GI50 (OVCAR-8 ovarian) was 27 µM and the TGI (OVCAR-8 ovarian) was > 100 µM. It also gave a GI50 (MDA-MB-231 breast) of 10.1 µM, a TGI (MDA-MB-231 breast) of 27.2 µM and a GI50 (U251 CNS) of 25.9 µM. The TGI (U251 CNS) was 99.6 µM, the GI50 (SNB-19 CNS) was 23.5 µM and the TGI (SNB-19 CNS) was > 100 µM. For the same molecule, the GI50 (UACC-257 melanoma) was 24.1 µM, the TGI (UACC-257 melanoma) was > 100 µM and the GI50 (T-47D breast) was 18.5 µM. The TGI (T-47D breast) was > 100 µM, the GI50 (SF-268 CNS) was 18.1 µM and the TGI (SF-268 CNS) was > 100 µM. The GI50 (NCI-H522 lung) was 26.9 µM, the TGI (NCI-H522 lung) was 94.1 µM and the GI50 (SR leukemia) was 20.9 µM. The TGI (SR leukemia) was > 100 µM, the GI50 (SF-295 CNS) was 11.1 µM and the TGI (SF-295 CNS) was 32 µM. For the same molecule, the GI50 (OVCAR-4 ovarian) was 27.2 µM, the TGI (OVCAR-4 ovarian) was > 100 µM and the GI50 (OVCAR-5 ovarian) was 17.7 µM. For the same molecule, the TGI (OVCAR-5 ovarian) was 56.3 µM, the GI50 (ACHN renal) was 23.6 µM and the TGI (ACHN renal) was > 100 µM. For the same molecule, the GI50 (HT29 colon) was 26.7 µM and the TGI (HT29 colon) was > 100 µM.
